From publication PMC3445549, “The Mode of Action of Isocyanide in Three Aquatic Organisms, Balanus amphitrite, Bugula neritina and Danio rerio” (PLoS ONE, 2012)

Target: T1, NADH-ubiquinone oxidoreductase (Amphibalanus amphitrite, UniProt A0A6A4V2F0)
T1 construct: gene NDUFV1; native protein from solubilised cyprid lysate; 50 kD band
Experiment: affinity pull-down on Affi-gel […] matrix, SDS-PAGE, UPLC-MS/MS
Format: biochemical
Conditions: isocyanide 2 coupled to matrix via its amine (labelled compound); competed by 0.4 mg/ml free isocyanide 2; cyprid lysate; wash 500 mM NaCl, 1% Triton X100

T1 sequence (A0A6A4V2F0 27-476): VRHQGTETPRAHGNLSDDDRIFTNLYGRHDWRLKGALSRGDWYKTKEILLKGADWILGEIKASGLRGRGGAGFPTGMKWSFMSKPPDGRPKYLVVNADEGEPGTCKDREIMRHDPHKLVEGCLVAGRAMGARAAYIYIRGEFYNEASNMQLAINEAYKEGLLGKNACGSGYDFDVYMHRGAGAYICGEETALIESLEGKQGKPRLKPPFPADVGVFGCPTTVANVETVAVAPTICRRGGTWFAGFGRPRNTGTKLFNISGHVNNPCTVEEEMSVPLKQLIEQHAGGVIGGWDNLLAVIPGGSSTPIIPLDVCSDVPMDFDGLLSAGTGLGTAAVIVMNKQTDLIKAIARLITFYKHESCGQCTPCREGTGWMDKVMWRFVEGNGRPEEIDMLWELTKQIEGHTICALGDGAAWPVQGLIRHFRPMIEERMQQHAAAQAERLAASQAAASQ

Q: For `[C-]#[N+]C(C)(C)CCCCCCCCCN` [compound 2, 10-isocyano-10-methylundecan-1-amine], which “affinity pull-down on Affi-gel 10 matrix, SDS-PAGE, UPLC-MS/MS” value is on record?
A: The value was “NADH-ubiquinone oxidoreductase was specifically identified in this protein band (Table S2)”.
